According to paper PMC6661766, “Antimicrobial, antioxidant and cytotoxic evaluation of diazenyl chalcones along with insights to mechanism of interaction by molecular docking studies” (BMC Chemistry, 2019):
Values after ≈ are worked out from the molar mass of the structure shown. Read-outs that look alike come from different tables or passages of the source. One block for each compound: values may come before it.

Legend:
[1] = DPPH scavenging antioxidant assay
Method: The derivatives (C18–C27) were assessed for their antioxidant potential in the presence of the stable free radical DPPH using ascorbic acid as the standard compound [36, 37]. […] The total volume of 200 µl was used in each well for each concentration of the test and standard drug containing 0.004 µg DPPH. The assay was performed in triplicate at all concentrations of each sample and standard compound. DPPH solutions in methanol at the same concentration without test drugs were used as the control. Each concentration of the sample and standard has a different blank. To minimize evaporation, the plate was covered with the lid and wrapped in aluminium foil and kept in the dark place in order to protect the DPPH radical from degradation by light and left for 30 min. After 30 min of incubation, the plate was kept in ELISA reader to measure the absorbance values at 517 nm. The experiment was performed in triplicate. The antioxidant activity of each sample was then calculated as per cent inhibition of DPPH according to the following equation: %decolourationofDPPH=ControlAbs-SampleAbs×100/ControlAbs

B. subtilis = experiment: Antimicrobial serial tube dilution, MIC and MBC; type: cell-based, Bacillus subtilis MTCC 2063
Method: (§1) The synthesized diazenyl chalcones (C18 to C27) and controls (dyes A and E, and chalcone) were assessed for their antimicrobial activity by estimation of MIC and MBC/MFC values. […] The stock solutions of the test compounds and standard drugs having a concentration of 1000 µg ml^−1 were prepared by dissolving the used compounds in DMSO. The nutrient broth/Sabouraud dextrose broth was used for the serial dilution of the test compounds and referenced drugs for bacterial and fungal cultures, respectively. […] The size of the final inoculum in each test tube was taken as 5 × 10^5 CFU ml^−1. The incubation of the test and standard compounds of varying concentrations was done for 24 h at 37 ± 2 °C (bacterial culture) and for 48 h at 37 ± 2 °C (C. albicans) and for 7 d at 25 ± 2 °C (A. fumigatus). The diazenyl chalcones (C18–C27), were further evaluated for their bactericidal/fungicidal activity by estimation of MBC/MFC values. […] For proper mixing of culture media, the plates were shaken gently followed by incubation at the predefined temperature and time as stated earlier, followed by the visual inspection of the plates for signs of microbial growth.

S. typhi = experiment: Antimicrobial serial tube dilution, MIC and MBC; type: cell-based, Salmonella typhi MTCC 3216; details: Salmonella enterica, TYPHI; for MIC: 24 h, read-out: S. typhi MIC; for MBC: read-out: S. typhi MBC
Method: as §1

S. aureus = experiment: Antimicrobial serial tube dilution, MIC and MBC; type: cell-based, Staphylococcus aureus MTCC 2901; details: Staphylococcus aureus; for MIC: 24 h at 37 ± 2 °C, read-out: S. aureus MIC; for MBC: read-out: S. aureus MBC
Method: as §1

B. cereus = experiment: Antimicrobial serial tube dilution, MIC and MBC; type: cell-based, Bacillus cereus MTCC 1305; details: Bacillus cereus; for MIC: read-out: B. cereus MIC; for MBC: read-out: B. cereus MBC
Method: as §1

E. coli = experiment: Antimicrobial serial tube dilution, MIC and MBC; type: cell-based, Escherichia coli MTCC 1652
Method: as §1

[2] = Escherichia coli, read-out: E. coli MBC
[3] = Escherichia coli; 24 h at 37 ± 2 °C; read-out: E. coli MIC
[4] = Bacillus subtilis, read-out: B. subtilis MBC
[5] = Bacillus subtilis; 24 h at 37 ± 2 °C; read-out: B. subtilis MIC

IC50 DPPH [1]: 4.45 µg/mL (≈ 25.3 µM)
IC50 DPPH ([1]; listed as Ascorbic Acid): 4.451 µg/mL (≈ 25.3 µM)
SMILES: O=C1O[C@H]([C@@H](O)CO)C(O)=C1O [Ascorbic acid, ascorbic acid, reference compound]
% inhibition of DPPH ([1]; 1.56 µg ml^−1): 39.22%
% inhibition of DPPH ([1]; 3.12 µg ml^−1): 46.53%
% inhibition of DPPH ([1]; 6.25 µg ml^−1): 80.07%
% inhibition of DPPH ([1]; 12.5 µg ml^−1): 84.09%
% inhibition of DPPH ([1]; 25 µg ml^−1): 87.81%
% inhibition of DPPH ([1]; 50 µg ml^−1): 89.95%
% inhibition of DPPH ([1]; 100 µg ml^−1): 90.31%

SMILES: O=C(O)c1cn(C2CC2)c2cc(N3CCNCC3)c(F)cc2c1=O [CIP, ciprofloxacin, reference compound]
MIC (B. subtilis; Bacillus subtilis, 24 h, read-out: B. subtilis MIC): 7.81 µg/mL (≈ 23.6 µM)
MBC (B. subtilis; Bacillus subtilis; read-out: B. subtilis MBC): 15.6 µg/mL (≈ 47.1 µM)
MIC (S. typhi): 7.81 µg/mL (≈ 23.6 µM)
MBC (S. typhi): 7.81 µg/mL (≈ 23.6 µM)
MIC (S. aureus): 1.95 µg/mL (≈ 5.89 µM)
MBC (S. aureus): 3.9 µg/mL (≈ 11.8 µM)
MIC (B. cereus; 24 h): 7.81 µg/mL (≈ 23.6 µM)
MBC (B. cereus): 15.6 µg/mL (≈ 47.1 µM)
MBC (E. coli; [2]): 7.81 µg/mL (≈ 23.6 µM)
MIC (E. coli; [3]): 3.9 µg/mL (≈ 11.8 µM)

SMILES: CC1=C(C(=O)O)N2C(=O)[C@@H](NC(=O)[C@H](N)c3ccc(O)cc3)[C@H]2SC1 [Cefadroxil, cefadroxil, reference compound]
MBC (B. subtilis; [4]): 125 µg/mL (≈ 344 µM)
MIC (B. subtilis; [5]): 62.5 µg/mL (≈ 172 µM)
MIC (S. typhi): 125 µg/mL (≈ 344 µM)
MBC (S. typhi): 125 µg/mL (≈ 344 µM)
MIC (S. aureus): 15.6 µg/mL (≈ 43 µM)
MBC (S. aureus): 31.2 µg/mL (≈ 86 µM)
MIC (B. cereus; 24 h at 37 ± 2 °C): 31.2 µg/mL (≈ 86 µM)
MBC (B. cereus): 31.2 µg/mL (≈ 86 µM)
MIC (E. coli; [3]): 31.2 µg/mL (≈ 86 µM)
MBC (E. coli; Escherichia coli; read-out: E. coli MBC): 31.2 µg/mL (≈ 86 µM)

SMILES: CO/N=C(\C(=O)N[C@@H]1C(=O)N2C(C(=O)O)=C(COC(C)=O)CS[C@H]12)c1csc(N)n1 [Cefotaxime, cefotaxime, reference compound]
MBC (B. subtilis; [4]): 7.81 µg/mL (≈ 17.1 µM)
MIC (B. subtilis; [5]): 1.95 µg/mL (≈ 4.28 µM)
MIC (S. typhi): 3.9 µg/mL (≈ 8.56 µM)
MBC (S. typhi): 7.81 µg/mL (≈ 17.1 µM)
MIC (S. aureus): 15.6 µg/mL (≈ 34.3 µM)
MBC (S. aureus): 31.2 µg/mL (≈ 68.6 µM)
MIC (B. cereus; 24 h): 7.81 µg/mL (≈ 17.1 µM)
MBC (B. cereus): 15.6 µg/mL (≈ 34.3 µM)
MIC (E. coli; Escherichia coli, 24 h, read-out: E. coli MIC, 24 h at 37 ± 2 °C): 7.81 µg/mL (≈ 17.1 µM)
MBC (E. coli; [2]): 7.81 µg/mL (≈ 17.1 µM)
